This note sets out measurements from ChEMBL document CHEMBL3132812, “Metabolism-guided drug design” (Medchemcomm, 2013).

Data set [1] in a line: Lipophilicity, log D of the compound at pH 7.4. As to conditions: buffer. Type of data set: physicochemical.
The next data set deals with Trypsin (Homo sapiens, UniProt P07477+P07478+P35030). The experiment in a line: Inhibition of trypsin (unknown origin). The format is protein assay.
A further data set concerns the target Prothrombin (Homo sapiens, UniProt P00734). The experiment in a line: Inhibition of thrombin (unknown origin).
Data set [2] can be described thus: Drug metabolism in rat liver microsomes assessed as N-demethylation. Type of data set: ADME. Particulars: read-out: Drug metabolism.
The nature of data set [3]: Drug metabolism in rat liver microsomes assessed as O-demethylation. The format is ADME. Particulars: read-out: Drug metabolism.
Data set [4] can be described thus: Drug metabolism in rat liver microsomes assessed as oxidative deamination. The format is ADME. As to conditions: read-out: Drug metabolism.
Data set [5] is described as follows: Half life in monkey. The format is ADME, organism-based, Macaca mulatta. As to conditions: rhesus monkey, in vivo.
Data set [6] deals with Homo sapiens. The data set can be described thus: In vivo inhibition of CYP2D6 in patient assessed as inhibition of dextromethorphan to dextrorphan conversion at 20 to 40 mg, qd relative to control. The format is ADME, organism-based.
Data set [7] in a line: Drug metabolism in human. The format is ADME, organism-based. As to conditions: in vivo, read-out: Drug metabolism.
Data set [8] has as its system Homo sapiens. The experiment in a line: In vivo inhibition of CYP2D6 in patient at 20 mg, qd relative to control. The format is ADME, organism-based.
Data set [9] is described as follows: Half life in rat. The format is ADME, organism-based. Particulars: in vivo.
Data set [10] is described as follows: Half life in human plasma at 600 mg, po. Type of data set: ADME, organism-based.

For `CNS(=O)(=O)Cc1ccc2[nH]cc(CCN(C)C)c2c1`, the logD in [1] is -1.7.
For the compound `Cc1cnc(NCC(F)(F)c2ccccn2)c(=O)n1CC(=O)NCc1ncccc1F`, the IC50 against Trypsin is 252 nM.
Consider `N#Cc1cnc(NCC(F)(F)c2ccccn2)c(=O)n1CC(=O)NCc1ncccc1F`, for which the IC50 amounted to 213 nM at Trypsin and 2.3 nM against Prothrombin.
`Cc1nc(N)ccc1CNC(=O)Cn1c(C)cnc(NCC(F)(F)c2ccccn2)c1=O` had an IC50 against Trypsin of 800 nM.
As for `COc1ccc([C@H]2Cc3c(cccc3C(F)(F)F)N(CCN(C)C)C(=O)[C@H]2OC(C)=O)cc1`, the metabolised in data set [2] is 31%; in data set [3], 8%; in [4], 53%.
As for `CC(c1ccoc1)N(O)C(N)=O` (stereo not drawn), in [5], the half-life is 3.1 h.
Take `[3H]C1([3H])Oc2ccc(OC[C@@H]3CNCC[C@H]3c3ccc(F)cc3)cc2O1`: in the data set with Homo sapiens [6], the “inhibition (INH)” value is 15%.
As for `[3H]C([3H])([3H])Oc1ccc(C(CN(C([3H])([3H])[3H])C([3H])([3H])[3H])C2(O)CCCCC2)cc1` (stereo not drawn), the metabolised in data set [7] amounted to 50%.
In the case of `C[C@H](C#Cc1ccc(Oc2ccc(F)cc2)o1)N(O)C(N)=O`, in data set [5], the half-life was 7.4 h.
With `Cc1nc(N)ccc1CNC(=O)Cn1c(C)cnc(NCCc2ccccc2)c1=O` [L-375378], the IC50 at Trypsin was 1800 nM; at Prothrombin it was 0.8 nM.
With `Fc1ccc([C@@H]2CCNC[C@H]2COc2ccc3c(c2)OCO3)cc1` [PAROXETINE], the “inhibition (INH)” value in the data set with Homo sapiens [8] is given as 55%.
Compound `CS(=O)(=O)c1ccc(-n2nc(C(F)(F)F)cc2-c2ccc(F)cc2)cc1` [SC-58125] came in with a half-life in [9] above 220 h.
On to `CC(c1cc2ccccc2s1)N(O)C(N)=O` (stereo not drawn) [ZILEUTON], for which the half-life in data set [10] is 3 h; in data set [5] it was below 1 h.
